US11427556B2, “Urea derivatives as inhibitors of ASK1” (Hepagene Therapeutics (HK) Limited, priority 2017, dated 2022)

These molecules were tested against T1, Recombinant human ASK1 kinase (Homo sapiens, UniProt Q99683) (assay: ASK1 kinase HTRF assay (HTRF KinEASE-STK, phosphorylation of biotinylated peptide substrate)). Conditions: not given.
T1 construct: purchased Invitrogen Inc
T1 sequence (Q99683 1-1374): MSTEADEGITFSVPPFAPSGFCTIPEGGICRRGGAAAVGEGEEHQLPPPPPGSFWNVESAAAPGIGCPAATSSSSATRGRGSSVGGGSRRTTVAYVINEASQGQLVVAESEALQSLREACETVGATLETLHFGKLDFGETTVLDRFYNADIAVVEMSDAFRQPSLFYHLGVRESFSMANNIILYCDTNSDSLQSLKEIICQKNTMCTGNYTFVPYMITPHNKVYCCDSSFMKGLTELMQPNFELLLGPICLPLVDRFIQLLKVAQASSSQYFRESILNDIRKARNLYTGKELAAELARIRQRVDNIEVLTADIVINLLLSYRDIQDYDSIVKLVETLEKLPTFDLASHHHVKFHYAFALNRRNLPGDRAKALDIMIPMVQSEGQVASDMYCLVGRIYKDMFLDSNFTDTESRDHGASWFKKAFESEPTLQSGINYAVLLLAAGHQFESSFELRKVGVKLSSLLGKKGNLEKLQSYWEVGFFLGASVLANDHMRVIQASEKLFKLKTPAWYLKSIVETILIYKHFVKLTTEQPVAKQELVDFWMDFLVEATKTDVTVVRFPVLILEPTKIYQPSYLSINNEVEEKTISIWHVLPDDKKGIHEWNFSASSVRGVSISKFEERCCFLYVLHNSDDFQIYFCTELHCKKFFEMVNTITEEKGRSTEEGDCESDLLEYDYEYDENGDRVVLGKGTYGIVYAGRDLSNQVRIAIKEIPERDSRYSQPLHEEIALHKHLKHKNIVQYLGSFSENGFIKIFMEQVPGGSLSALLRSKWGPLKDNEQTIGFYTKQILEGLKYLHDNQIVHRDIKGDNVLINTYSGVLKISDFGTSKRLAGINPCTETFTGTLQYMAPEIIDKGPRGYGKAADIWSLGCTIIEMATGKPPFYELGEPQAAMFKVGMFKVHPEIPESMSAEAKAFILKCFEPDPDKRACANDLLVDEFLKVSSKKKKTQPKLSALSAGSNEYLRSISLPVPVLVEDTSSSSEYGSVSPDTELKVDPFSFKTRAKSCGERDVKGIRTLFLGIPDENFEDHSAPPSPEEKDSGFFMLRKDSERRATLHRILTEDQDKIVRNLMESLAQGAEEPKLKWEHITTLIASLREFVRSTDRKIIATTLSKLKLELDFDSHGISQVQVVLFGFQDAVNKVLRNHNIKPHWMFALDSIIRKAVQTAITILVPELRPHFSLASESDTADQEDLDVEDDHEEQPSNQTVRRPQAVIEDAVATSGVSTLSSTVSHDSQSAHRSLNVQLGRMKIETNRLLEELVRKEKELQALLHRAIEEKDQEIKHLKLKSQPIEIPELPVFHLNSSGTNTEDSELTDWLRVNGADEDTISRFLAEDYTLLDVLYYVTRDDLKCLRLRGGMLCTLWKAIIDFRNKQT
Type: biochemical
Description: Reagents: Recombinant human ASK1 kinase was from Invitrogen Inc. HTRF KinEASETM-STK S3 kit was obtained from Cisbio (Bedford, Mass.). All other reagents were of the highest grade commercially available.
Assay: The assay measures the phosphorylation level of a biotinylatd peptide substrate by the ASK1 kinase using HTRF detection. ASK1 kinase assay is based on HTRF KinEASETM-STK manual from Cisbio. Test compound, 1 uM STK-substrate-biotin, 3 nM of ASK1 kinase are incubated with 1*Kinase buffer with 5 mM MgCl2 and 1 mM DTT.

EC50 [nM]	SMILES
50 to 500	CC(C)n1cnnc1-c1cccc(NC(=O)Nc2ccccc2)n1 [Compound I-016]
< 50	CC(C)n1cnnc1-c1cccc(NC(=O)Nc2ccccn2)n1 [Compound I-025]
50 to 500	CC(C)n1cnnc1-c1cccc(NC(=O)Nc2cccnc2)n1 [Compound I-032]
50 to 500	CC(C)n1cnnc1-c1cccc(NC(=O)Nc2ccncc2)n1 [Compound I-033]

Same assay, conditions: 3 nM ASK1 kinase, 1 uM STK-substrate-biotin, HTRF detection; read-out: EC50

EC50 [nM]	SMILES
< 50	Cc1ccc(NC(=O)Nc2cccc(-c3nncn3C(C)C)n2)nc1 [Compound I-001, 1-(6-(4-Isopropyl-4H-1,2,4-triazol-3-yl)pyridin-2-yl)-3-(5-methylpyridin-2-yl) urea]
< 50	C[C@H](CO)n1cnnc1-c1cccc(NC(=O)Nc2cc(-c3ccc(C4CC4)nc3)ccn2)n1 [Compound I-002, 3-[4-(6-Cyclopropylpyridin-3-yl)pyridin-2-yl]-1-(6-{4-[(2R)-1-hydroxypropan-2-yl]-4H-1,2,4-triazol-3-yl}pyridin-2-yl)urea]
< 50	CC(n1cnnc1-c1cccc(NC(=O)Nc2ccccn2)n1)C(F)(F)F (centres unmarked) [Compound I-003, 3-(Pyridin-2-yl)-1-[6-[4-(1,1,1-trifluoropropan-2-yl)-4H-1,2,4-triazol-3-yl]pyridin-2-yl]urea]
< 50	CC(C)n1cnnc1-c1cccc(NC(=O)Nc2cc(NC(=O)c3ccccc3)ccn2)n1 [Compound I-004, N-(2-(3-(6-(4-Isopropyl-4H-1,2,4-triazol-3-yl)pyridin-2-yl)ureido)pyridin-4-yl)benzamide]
< 50	CC(C)n1cnnc1-c1cccc(NC(=O)Nc2cc(N3CCN(C)CC3)ccn2)n1 [Compound I-005, 1-(6-(4-Isopropyl-4H-1,2,4-triazol-3-yl)pyridin-2-yl)-3-(4-(4-methylpiperazin-1-yl)pyridin-2-yl)urea]
< 50	CC(C)n1cnnc1-c1cccc(NC(=O)Nc2cc(C(=O)N3CCc4ccccc4C3)ccn2)n1 [Compound I-006, 1-(6-(4-Isopropyl-4H-1,2,4-triazol-3-yl)pyridin-2-yl)-3-(4-(1,2,3,4-tetrahydroisoquinoline-2-carbonyl)pyridin-2-yl)urea]
< 50	C[C@H](CO)n1cnnc1-c1cccc(NC(=O)Nc2cc(C(=O)N3CCC(C)(C)CC3)ccn2)n1 [Compound I-007, (R)-1-(4-(4,4-Dimethylpiperidine-1-carbonyl)pyridin-2-yl)-3-(6-(4-(1-hydroxypropan-2-yl)-4H-1,2,4-triazol-3-yl)pyridin-2-yl)urea]
< 50	CC(C)(C)n1cnnc1-c1cccc(NC(=O)Nc2cc(C(=O)N3CCCCC3)ccn2)n1 [Compound I-008, 3-[6-(4-tert-Butyl-4H-1,2,4-triazol-3-yl)pyridin-2-yl]-1-[4-(piperidine-1-carbonyl)pyridin-2-yl]urea]
< 50	CC(C)n1cnnc1-c1cccc(NC(=O)Nc2ccc(C(N)=O)cn2)n1 [Compound I-009, 6-(3-(6-(4-Isopropyl-4H-1,2,4-triazol-3-yl)pyridin-2-yl)ureido)nicotinamide]
50 to 500	CC(=O)OC[C@@H](C)n1cnnc1-c1cccc(NC(=O)Nc2cc(C(=O)N3CCCCC3)ccn2)n1 [Compound I-012, (2R)-2-[3-[6-([[4-(Piperidine-1-carbonyl)pyridin-2-yl]carbamoyl]amino)pyridin-2-yl]-4H-1,2,4-triazol-4-yl]propyl acetate]
< 50	CC(C)[C@H](N)C(=O)OC[C@@H](C)n1cnnc1-c1cccc(NC(=O)Nc2cc(C(=O)N3CCCCC3)ccn2)n1 [Compound I-013, (2R)-2-[3-[6-([[4-(Piperidine-1-carbonyl)pyridin-2-yl]carbamoyl]amino)pyridin-2-yl]-4H-1,2,4-triazol-4-yl]propyl (2S)-2-amino-3-methylbutanoate]
< 50	CC(C)n1cnnc1-c1cccc(NC(=O)Nc2cc(S(=O)(=O)Nc3ccccc3)ccn2)n1 [Compound I-014, 1-[4-(Phenylsulfamoyl)pyridin-2-yl]-3-[6-[4-(propan-2-yl)-4H-1,2,4-triazol-3-yl]pyridin-2-yl]urea]
< 50	CC(C)n1cnnc1-c1cccc(NC(=O)Nc2cc(NS(=O)(=O)c3ccccc3)ccn2)n1 [Compound I-015, 3-(4-Benzenesulfonamidopyridin-2-yl)-1-[6-[4-(propan-2-yl)-4H-1,2,4-triazol-3-yl]pyridin-2-yl]urea]
50 to 500	Cc1ccc(NC(=O)Nc2cccc(-c3nncn3C(C)C)n2)cc1 [Compound I-017]
50 to 500	Cc1ccc(NC(=O)Nc2cccc(-c3nncn3C(C)C)n2)c(F)c1 [Compound I-018]
500 to 5000	Cc1cc(F)c(NC(=O)Nc2cccc(-c3nncn3C(C)C)n2)cc1-n1cnc(C2CC2)c1 [Compound I-020]
< 50	C[C@H](CO)n1cnnc1-c1cccc(NC(=O)Nc2ccccn2)n1 [Compound I-026]
50 to 500	C[C@@H](CO)n1cnnc1-c1cccc(NC(=O)Nc2ccccn2)n1 [Compound I-027]
< 50	CCC(C)n1cnnc1-c1cccc(NC(=O)Nc2ccccn2)n1 (centres unmarked) [Compound I-028]
50 to 500	CC(CN)n1cnnc1-c1cccc(NC(=O)Nc2ccccn2)n1 (centres unmarked) [Compound I-030]
50 to 500	COCC(C)n1cnnc1-c1cccc(NC(=O)Nc2ccccn2)n1 (centres unmarked) [Compound I-031]
50 to 500	Cc1ccc(NC(=O)Nc2cccc(-c3nncn3C3CC3)n2)nc1 [Compound I-034]

EC50 [nM]	SMILES
< 50	Cc1ccc(NC(=O)Nc2cccc(-c3nncn3C(C)CO)n2)nc1 (centres unmarked) [Compound I-035]
< 50	Cc1ccc(NC(=O)Nc2cccc(-c3nncn3[C@H](C)CO)n2)nc1 [Compound I-036]
50 to 500	Cc1ccc(NC(=O)Nc2cccc(-c3nncn3[C@@H](C)CO)n2)nc1 [Compound I-037]
< 50	Cc1ccnc(NC(=O)Nc2cccc(-c3nncn3C(C)C)n2)c1 [Compound I-038]
< 50	Cc1cccnc1NC(=O)Nc1cccc(-c2nncn2C(C)C)n1 [Compound I-039]
< 50	Cc1cccc(NC(=O)Nc2cccc(-c3nncn3C(C)C)n2)n1 [Compound I-040]
50 to 500	Cc1ccc(NC(=O)Nc2cccc(-c3nncn3C(C)C)n2)cn1 [Compound I-041]
< 50	CCc1ccnc(NC(=O)Nc2cccc(-c3nncn3C(C)C)n2)c1 [Compound I-042]
< 50	Cc1cnc(NC(=O)Nc2cccc(-c3nncn3C(C)C)n2)cc1C [Compound I-043]
< 50	CC(C)c1ccc(NC(=O)Nc2cccc(-c3nncn3C(C)C)n2)nc1 [Compound I-044]
< 50	CC(C)c1ccnc(NC(=O)Nc2cccc(-c3nncn3C(C)C)n2)c1 [Compound I-045]
< 50	CC(C)n1cnnc1-c1cccc(NC(=O)Nc2ccc(C3CC3)cn2)n1 [Compound I-046]
< 50	CC(C)n1cnnc1-c1cccc(NC(=O)Nc2cc(C3CC3)ccn2)n1 [Compound I-047]
< 50	CC(C)n1cnnc1-c1cccc(NC(=O)Nc2cc(C3CCCC3)ccn2)n1 [Compound I-048]
< 50	CC(C)n1cnnc1-c1cccc(NC(=O)Nc2cc(C3CCCCC3)ccn2)n1 [Compound I-049]
< 50	CC(C)n1cnnc1-c1cccc(NC(=O)Nc2cc(C3CCNCC3)ccn2)n1 [Compound I-050]
< 50	COc1ccc(NC(=O)Nc2cccc(-c3nncn3C(C)C)n2)nc1 [Compound I-051]
< 50	COc1ccnc(NC(=O)Nc2cccc(-c3nncn3C(C)C)n2)c1 [Compound I-052]
< 50	COc1ccnc(NC(=O)Nc2cccc(-c3nncn3[C@H](C)CO)n2)c1 [Compound I-053]
50 to 500	COc1ccnc(NC(=O)Nc2cccc(-c3nncn3[C@@H](C)CO)n2)c1 [Compound I-054]
< 50	COc1cccnc1NC(=O)Nc1cccc(-c2nncn2C(C)C)n1 [Compound I-055]
